Reference: patent US12648919B2, “Anticoccidial composition comprising coumaric acid and use thereof” (CJ CHEILJEDANG CORPORATION, priority 2021, dated 2026)

How the values were obtained:
[1] = test system: Eimeria tenella protozoa (sporozoites); assay: Direct killing effect against Eimeria tenella protozoa (sporozoites), microscopic count; details: 10 ppm; death rate compared to PBS-treated negative control group
Method: (§1) A certain amount of oocysts of the protozoa was put in a tube containing glass beads and pulverized, and then to remove the crushed oocyst cell wall and other debris, internal sporocysts were purified using the percoll density gradient, and washed with PBS solution. A reagent comprising sodium taurocholic acid (Sigma aldrich, USA) and trypsin (Gibco, USA), respectively, was treated to sporocysts of Eimeria tenella for excystation and they were incubated, and then they were washed with PBS solution once and protozoa were obtained.
After reacting 0.1% DMSO, m-coumaric acid (sigma, 14755-02-3), Caffeic acid (sigma, 331-39-5) and Ferulic acid (sigma, 1135-24-6) with the Eimeria tenella protozoa at a concentration of 10 ppm, respectively, only alive protozoa (sporozoites) were counted through microscopic observation. Then, the death rate (%) of the protozoa when each material was treated compared to the PBS-treated negative control group was measured, and the result was shown in Table 8 below.

Eimeria tenella [2] = assay: Cell invasion inhibition of Eimeria tenella protozoa in MDBK cells (PCR, ITS-1 gene); format: cell-based; details: for inhibition at 10 ppm: read-out: Invasion inhibition %
Method: as §1, with “each of Eimeria tenella and Eimeria acervulina” for “the protozoa”, “tenella, Eimeria acervulina and Eimeria maxima” for “tenella”
(§2) The protozoa of Eimeria tenella and Eimeria acervulina were obtained by the method of Example 3-1 above. Sporozoites of 2×10^5 per well were added to a well in which MDBK cells (purchased from ATCC) spread as a monolayer and each material (p-coumaric acid: sigma, CAS No. 501-98-4, and anticoccidial agents, gallic acid: sigma, CAS No. 149-91-7, salinomycin: CAS No. sigma, 53003-10-4, diclazuril: sigma, CAS No. 101831-37-2, p-coumaric acid, gallic acid and salinomycin were treated by 10 ppm, and diclazuril was treated by 1 ppm) was treated to the cells, and cultured at a temperature of 40° C. for 24 hours. The negative control group is MDBK cells infected by the protozoa, and the positive control group means a group in which gallic acid, salinomycin or diclazuril solution was incubated with the protozoa. […] After removing the cells and protozoa inside the cells through pipetting, DNA was extracted from the cells, and PCR was performed using E. tenella ITS-1 (Internal transcribed spacer-1) gene or E. acervulina ACE gene-specific primers. The sequences of the used primers were described in Table 5 below.
(§3) Ct values before/after washing for each material were compared and corrected with the ΔCt value of the negative control group to calculate the fold change (2^−ΔCt) at each time point compared to the control group, and the invasion inhibition rate (%) of the protozoa by material treatment was calculated, and the result was shown in Table 6 and Table 7.
By the similar method to Example 3-2 above, 0.1% DMSO, p-coumaric acid (sigma, CAS No. 501-98-4), m-coumaric acid (sigma, 14755-02-3), and o-coumaric acid (sigma, 614-60-8) were treated at a concentration of 10 ppm, respectively, and the cell invasion inhibition rate against the Eimeria tenella protozoan was measured, and the result was shown in Table 9.

Eimeria tenella [3] = assay: Intracellular propagation inhibition of Eimeria tenella protozoa in MDBK cells (PCR, ITS-1 gene); format: cell-based
Method: as §1, with “each of Eimeria tenella and Eimeria acervulina” for “the protozoa”, “tenella, Eimeria acervulina and Eimeria maxima” for “tenella”
The protozoa of Eimeria tenella were obtained by the method of Example 3-1 above. […] Each material (p-coumaric acid, and anticoccidial agents, gallic acid, salinomycin: 10 ppm and diclazuril: 1 ppm) to the cells, and further cultured at a temperature of 40° C. for 24 hours.
The negative control group is MDBK cells infected by the protozoa, and the positive control group means a group in which salinomycin, gallic acid, or diclazuril solution was incubated with the protozoa. After removing the cells and protozoa inside the cells through pipetting, DNA was extracted from the cells using DNA extract kit (iNtRON Biotechnology), and PCR was performed using E. tenella ITS-1 (Internal transcribed spacer-1) gene-specific primers. The sequences of the used primers were described in Table 5 above. Ct values before/after washing for each material were compared and corrected with the ΔCt value of the negative control group to calculate the fold change (2^−ΔCt) at each time point compared to the control group, and the invasion inhibition rate (%) of the protozoa by material treatment was calculated, and the result was shown in Table 6 above.

Eimeria acervulina = assay: Cell invasion inhibition of Eimeria acervulina protozoa in MDBK cells (PCR, ACE gene); format: cell-based; details: 40° C., 24 hours, p-coumaric acid, gallic acid, salinomycin 10 ppm, diclazuril 1 ppm
Method: as §1, with “each of Eimeria tenella and Eimeria acervulina” for “the protozoa”, “tenella, Eimeria acervulina and Eimeria maxima” for “tenella”
as §2, §3

Eimeria tenella [4] = assay: In vivo anticoccidial efficacy in broilers challenge-inoculated with Eimeria tenella oocysts (anticoccidial index); design: species or system Ross broilers; details: in feed: salinomycin 60 ppm, VantiPEARL 125 ppm, p-coumaric acid 125 ppm; for Oocyst excretion amount: feces of 6-9th day of challenge inoculation, McMaster chamber; for ADG after challenge inoculation: before challenge to 7th day after challenge, 10,000 oocysts oral/broiler; for Oocyst index: index 0/5/10/20/40 from oocyst excretion % compared to infected negative control group; for Appendix lesion index: lesion score x 10; for ACI (anticoccidial index): out of 200 points, Equation 2; for Appendix lesion score: scale 0-4, 9th day after challenge inoculation; for Survival rate: up to the 8th day after challenge inoculation
Method: An in vivo efficacy evaluation test was performed in an exclusive broiler animal experiment facility in U.S. One-day-old female Ross broilers were individually weighed and randomly divided into groups to use in an experiment.
For the feed, Korea Feed A1-choi product was used, and each material (salinomycin (Cheil Bio Cheilsalino-60 product), VantiPEAL (Kemin, Cozante, key substance: Gallic acid), p-coumaric acid (CAS No. 501-98-4; sigma)) was added to the feed, respectively, at a concentration described in Table 3 below to be self-mixed. Antibiotics and supplements were not used in general feed and mixed feed, and no anticoccidial agent other than each material was added. Broilers were fed ad libitum throughout the experiment period.
Coccidiosis induction was performed by oral inoculation (challenge inoculation) in an oral tube type of 10,000 oocysts with over 90% mature (sporulation) Eimeria tenella per one individual to 14-day-old broilers.
The feed formulation administered to the control group (negative control group or positive control group) and test group and whether coccidiosis was induced by Eimeria tenella were described in Table 3 below. 6 1-day-old broilers were put in a cage randomly arranged for each test group, and after 14 days of feeding the general feed, the formulated feed prepared above was divided into each control group or test group and ingested.
The anticoccidial efficacy by test group designed in Example 1-2 above was shown as an anticoccidial index (ACI), and the anticoccidial index was calculated by Equation 2 below. The ACI score is out of 200 points, and the higher the ACI score, the more excellent the anticoccidial ability, and when it is 120 points or more to less than 140 points, it is determined that it is effective as an anticoccidial material, and when it is 140 points or more to less than 160 points, it is determined that it is excellent as an anticoccidial material, and when it is 160 points or more, it is determined that the anticoccidial effect is very excellent. (Luis Miguel De Pablos et al., Anticoccidial activity of maslinic acid against infection with Eimeria tenella in chickens, Parasitol Res, 2010) Anticoccidial index (ACI)=(survival rate after challenge inoculation (%))+(daily weight gain compared to negative control group (RWG, %))−(lesion score×10)−(fecal oocyst excretion amount index) (Equation 2)
1) Survival rate: the number of dead individuals was recorded daily, and post mortem autopsy was performed to determine a cause of mortality, and the number of individuals who died due to causes other than coccidiosis was excluded. The survival rate (%) up to the 8th day after challenge inoculation was used for anticoccidial index calculation.
2) Daily weight gain: body weight was measured for each cage before challenge inoculation with a protozoan into an individual and at the 7th day after challenge inoculation, and the difference was divided by the number of days to calculate the daily weight gain (ADG, g/d). ‘Daily weight gain compared to the negative control group (RWG, %)’ which was calculated by dividing the daily weight gain (ADG, average daily gain: g/d) of each experimental group by the weight gain (ADG, g/d) of the non-infected negative control group and multiplying by 100 was used for anticoccidial index calculation.
3) Lesion scoring: On the 9th day after challenge inoculation, an autopsy was conducted for 4 broilers per cage, and the intestines were incised and opened. Scoring was performed for each coccidial lesion in the appendix region of the broilers. The lesion scoring method was performed by referring to Johnson J K & Reid W M (1970) document (Joyce Johnson, W. Malcolm Reid, Anticoccidial drugs: Lesion scoring techniques in battery and floor-pen experiments with chickens, Experimental parasitology, 1970). […]

[5] = Example 3-2, MDBK cells, 40° C., 24 hours, p-coumaric acid, gallic acid, salinomycin 10 ppm, diclazuril 1 ppm
[6] = MDBK cells, material added after 24 h invasion and washing, further 24 hours at 40° C., p-coumaric acid, gallic acid, salinomycin 10 ppm, diclazuril 1 ppm
[7] = Eimeria tenella, Example 4-2, MDBK cells, 10 ppm

Structure (SMILES): O=C(O)/C=C/c1ccc(O)c(O)c1 [Caffeic acid]
- Killed sporozoites % [1]: 0%

Structure (SMILES): N#CC(c1ccc(Cl)cc1)c1c(Cl)cc(-n2ncc(=O)[nH]c2=O)cc1Cl (stereo not shown) [Diclazuril, diclazuril]
- inhibition at 1 ppm (Eimeria tenella [2]; Eimeria tenella, Example 3-2, MDBK cells, 40° C., 24 hours, p-coumaric acid, gallic acid, salinomycin 10 ppm, diclazuril 1 ppm): 6.3%
- inhibition at 1 ppm (Eimeria tenella [3]; Eimeria tenella, MDBK cells, material added after 24 h invasion and washing, further 24 hours at 40° C., p-coumaric acid, gallic acid, salinomycin 10 ppm, diclazuril 1 ppm): 52.9%
- inhibition at 1 ppm (Eimeria acervulina; Eimeria acervulina): 42.7%

Structure (SMILES): COc1cc(/C=C/C(=O)O)ccc1O [Ferulic acid]
- Killed sporozoites % [1]: 0%

Structure (SMILES): O=C(O)c1cc(O)c(O)c(O)c1 [Gallic acid, gallic acid]
- Invasion inhibition % (Eimeria tenella [2]; [5]): 90.1%
- Propagation inhibition % (Eimeria tenella [3]; [6]): 0.0%
- Invasion inhibition % (Eimeria acervulina): 60.6%

Structure (SMILES): CC[C@@H](C(=O)[C@@H](C)[C@@H](O)[C@H](C)[C@@H]1O[C@@H]([C@@H](CC)C(=O)O)CC[C@@H]1C)[C@H]1O[C@]2(C=C[C@@H](O)[C@]3(CC[C@@](C)([C@H]4CC[C@](O)(CC)[C@H](C)O4)O3)O2)[C@H](C)C[C@@H]1C [Salinomycin, salinomycin]
- inhibition at 10 ppm (Eimeria tenella [2]; Eimeria tenella, MDBK, 24 h): 56.4%
- inhibition at 10 ppm (Eimeria tenella [3]; Eimeria tenella, MDBK, 24 h, read-out: Propagation inhibition %): 34.8%
- inhibition at 10 ppm (Eimeria acervulina; Eimeria acervulina): 59.4%
- Oocyst excretion amount (Eimeria tenella [4]): 6.3 × 10^7 Oocyst/chicken
- RWG (daily weight gain compared to the non-infected negative control group) (Eimeria tenella [4]): 81.8%
- ADG after challenge inoculation (Eimeria tenella [4]): 45 g/day
- Oocyst index (Eimeria tenella [4]): 10
- Appendix lesion index (Eimeria tenella [4]): 22.7
- ACI (anticoccidial index) (Eimeria tenella [4]): 149 points
- Appendix lesion score (Eimeria tenella [4]): 2.27
- Survival rate (Eimeria tenella [4]): 100%

Structure (SMILES): O=C(O)/C=C/c1cccc(O)c1 [m-coumaric acid]
- inhibition at 10 ppm (Eimeria tenella [2]; [7]): 29.8%
- Killed sporozoites % [1]: 10.7%

Structure (SMILES): O=C(O)/C=C/c1ccccc1O [o-coumaric acid]
- inhibition at 10 ppm (Eimeria tenella [2]; [7]): 39.6%

Structure (SMILES): O=C(O)/C=C/c1ccc(O)cc1 [p-coumaric acid]
- inhibition at 10 ppm (Eimeria tenella [2]; [7]): 7.98%
- Invasion inhibition % (Eimeria tenella [2]; [5]): 54.3%
- Propagation inhibition % (Eimeria tenella [3]; [6]): 43.9%
- Invasion inhibition % (Eimeria acervulina): 82.6%
- Oocyst excretion amount (Eimeria tenella [4]): 5.7 × 10^7 Oocyst/chicken
- RWG (daily weight gain compared to the non-infected negative control group) (Eimeria tenella [4]): 94.5%
- ADG after challenge inoculation (Eimeria tenella [4]): 52 g/day
- Oocyst index (Eimeria tenella [4]): 10
- Appendix lesion index (Eimeria tenella [4]): 25
- ACI (anticoccidial index) (Eimeria tenella [4]): 160 points
- Appendix lesion score (Eimeria tenella [4]): 2.5
- Survival rate (Eimeria tenella [4]): 100%
